# Assay results taken from patent US8426405B2, “Thiazopyrimidinones and uses thereof” (priority 2008, dated 2013).
# What was measured:
# [1] = system: HIV variant Y143R in integrase; experiment: Phenosense (PhenoScreen) assay, Y143R; format: cell-based
# Text: (§1) Monogram Bioscience' PhenoScreen assay allows the evaluation of integrase inhibitors for activity against a variety of HIV variants. The assay uses virus generated from 2 DNA constructs; one containing the HIV LTR, gag and pol regions, as well as a luciferase reporter gene in place of the viral envelope genes, and a second DNA construct containing the amphotrophic murine leukemia virus (A-MLV) envelope gene required to pseudotype virions and render them capable of entry into a target cell. Viruses generated using these constructs by transfection into a producer cell line such as 293T are capable of one-round of infection only. Successful integration events are directly proportional to the levels of luciferase expression 48 h after infection.
# (§2) The viral variants chosen by Avexa Ltd to screen their in-house integration inhibitors against consist of mutations within the viral integrase enzyme known to confer resistance to a number of known integration inhibitors published in the literature. In particular, the viral variants containing the Q148H/G140S double mutation in integrase, and the N155H/E92Q double mutation in integrase, represent two of the more common viruses identified to arise in patients that are failing treatment with Isentress (Raltegravir, MK-0518).
# [2] = target: T1, HIV integrase wild type (Human immunodeficiency virus type 1 group M subtype B, UniProt P04585); experiment: Strand transfer assay (enzyme assay), WT; format: biochemical, HIV-1
# T1 construct: The integrase coding region was then subject to PCR and cloned into a bacterial expression vector; made in house
# Text: (§3) HIV integrase was mutated within a shuttle vector (pGEM) containing the majority of the HIV-1 gag and pol sequence using site directed mutagenesis to generate integrase sequences that have been published as conferring resistance to published integrase inhibitors. These include, but are not limited to, mutations such as Q148K. The integrase coding region was then subject to PCR and cloned into a bacterial expression vector. The specific introduction of desired mutation(s) was confirmed by sequence analysis. Proteins were expressed, purified and used in strand transfer assays.
# (§4) A strand transfer assay procedure similar to that published (Ovenden et al. Phytochemistry. 2004 December; 65(24):3255-9.) is used. Briefly, 400 ng of the enzyme, wild type or drug resistant mutant, is mixed with the compound to be tested and incubated with 30 nM substrate DNA. The substrate DNA is designed to mimic HIV DNA termini that has undergone 3′end processing, and consists of the annealed U5 LTR sequence oligonucleotides tagged with Digoxigenin (DIG; 5′-[…]-DIG-3′) or biotin (5′-Bio-[…]-3′) so that each substrate has either a DIG or Bio tag on opposite strands. Reactions are carried out for 1 hr at 37° C. Products generated as a result of strand transfer activity are bound to streptavidin plates and detected using anti-DIG-alkaline phosphatase conjugate and p-nitro phenyl phosphate substrate.
# [3] = system: HIV variant T661 S153Y in integrase; experiment: Phenosense (PhenoScreen) assay, T661 S153Y; format: cell-based
# Text: as §1, §2
# [4] = system: HIV WT; experiment: Phenosense (PhenoScreen) assay, WT; format: cell-based; conditions: wild type HIV, luciferase 48 h after infection
# Text: as §1, §2
# [5] = system: HIV variant Q148H/G140S double mutation in integrase; experiment: Phenosense (PhenoScreen) assay, G140S Q148H; format: cell-based
# Text: as §1, §2
# [6] = system: HIV variant N155H/E92Q double mutation in integrase; experiment: Phenosense (PhenoScreen) assay, E92Q N155H; format: cell-based
# Text: as §1, §2
# [7] = system: HIV variant T125K F121Y in integrase; experiment: Phenosense (PhenoScreen) assay, T125K F121Y; format: cell-based
# Text: as §1, §2
# [8] = target: T2, HIV integrase E92Q/N155H (Human immunodeficiency virus type 1 group M subtype B, UniProt P04585, E1239Q/N1302H); experiment: Strand transfer assay (enzyme assay), E92Q/N155H; format: biochemical, HIV-1
# T2 construct: The integrase coding region was then subject to PCR and cloned into a bacterial expression vector; made in house
# Text: as §3, §4
# [9] = target: T3, HIV integrase G140S/Q148H (Human immunodeficiency virus type 1 group M subtype B, UniProt P04585, G1287S/Q1295H); experiment: Strand transfer assay (enzyme assay), G140S/Q148H; format: biochemical, HIV-1
# T3 construct: The integrase coding region was then subject to PCR and cloned into a bacterial expression vector; made in house
# Text: as §3, §4
SMILES,Phenosense assay Y143R [1],Enzyme WT [2],Phenosense assay T661 S153Y [3],Phenosense assay WT [4],Phenosense assay G140S Q148H [5],Phenosense assay E92Q N155H [6],Phenosense assay T125K F121Y [7],Enzyme E92Q/N155H [8],Enzyme G140S/Q148H [9]
CC(C)c1cn2c(=O)c(O)c(C(=O)NCc3ccc(Cl)c(Cl)c3)nc2s1,+++ (+++ indicates value between 0.001 μM and 1 μM),+++ (+++ indicates value between 0.001 μM and 1 μM),++ (++ indicates value between 1 μM and 10 μM),+++ (+++ indicates value between 0.001 μM and 1 μM),+ (+indicates value greater than 10 μM),+ (+indicates value greater than 10 μM),+ (+indicates value greater than 10 μM),,
Cc1cn2c(=O)c(O)c(-c3ncc(Cc4ccc(Cl)cc4)s3)nc2s1,,+++ (+++ indicates value between 0.001 μM and 1 μM),,,,,,++ (++ indicates value between 1 μM and 10 μM),+ (+indicates value greater than 10 μM)
Cc1cn2c(=O)c(O)c(-c3ncc(Cc4ccc(F)cc4)s3)nc2s1,,,,,,,,+++ (+++ indicates value between 0.001 μM and 1 μM),
Cc1cn2c(=O)c(O)c(-c3ncc(Cc4ccc(Cl)c(Cl)c4)s3)nc2s1,,+++ (+++ indicates value between 0.001 μM and 1 μM),,,,,,++ (++ indicates value between 1 μM and 10 μM),+++ (+++ indicates value between 0.001 μM and 1 μM)
Cc1cn2c(=O)c(O)c(C(=O)NCc3ccc(F)cc3)nc2s1,,++ (++ indicates value between 1 μM and 10 μM),,,,,,,
Cc1cn2c(=O)c(O)c(C(=O)NCc3ccc(Cl)c(Cl)c3)nc2s1,,+++ (+++ indicates value between 0.001 μM and 1 μM),,,,,,,
CN1CCN(Cc2cn3c(=O)c(O)c(C(=O)NCc4ccc(Cl)c(Cl)c4)nc3s2)CC1,+++ (+++ indicates value between 0.001 μM and 1 μM),+++ (+++ indicates value between 0.001 μM and 1 μM),++ (++ indicates value between 1 μM and 10 μM),+++ (+++ indicates value between 0.001 μM and 1 μM),+ (+indicates value greater than 10 μM),+ (+indicates value greater than 10 μM),+ (+indicates value greater than 10 μM),,
Cc1cn2c(=O)c(O)c(-c3ncc(Cc4ccc(F)c(Cl)c4)s3)nc2s1,,+++ (+++ indicates value between 0.001 μM and 1 μM),,,,,,++ (++ indicates value between 1 μM and 10 μM),++ (++ indicates value between 1 μM and 10 μM)
Cc1csc2nc(C(=O)NCc3ccc(Cl)c(Cl)c3)c(O)c(=O)n12,+++ (+++ indicates value between 0.001 μM and 1 μM),+++ (+++ indicates value between 0.001 μM and 1 μM),+ (+indicates value greater than 10 μM),+++ (+++ indicates value between 0.001 μM and 1 μM),+ (+indicates value greater than 10 μM),+ (+indicates value greater than 10 μM),+ (+indicates value greater than 10 μM),,
O=C(NCc1ccc(Cl)c(Cl)c1)c1nc2sc(CN3CCOCC3)cn2c(=O)c1O,+++ (+++ indicates value between 0.001 μM and 1 μM),+++ (+++ indicates value between 0.001 μM and 1 μM),+ (+indicates value greater than 10 μM),+++ (+++ indicates value between 0.001 μM and 1 μM),+ (+indicates value greater than 10 μM),+ (+indicates value greater than 10 μM),+ (+indicates value greater than 10 μM),,
O=C(NCc1ccc(F)cc1)c1nc2sc(CN3CCOCC3)cn2c(=O)c1O,++ (++ indicates value between 1 μM and 10 μM),++ (++ indicates value between 1 μM and 10 μM),+ (+indicates value greater than 10 μM),++ (++ indicates value between 1 μM and 10 μM),+ (+indicates value greater than 10 μM),+ (+indicates value greater than 10 μM),+ (+indicates value greater than 10 μM),,
